The values below come from patent publication US9918656B2, “Implantable magnetic relaxation sensors and methods of measuring a sensor's cumulative exposure to a biomarker” (Massachusetts Institute of Technology, priority 2010, dated 2018).

The structures appear in SMILES notation.

This data set relates to murine model. Nature of the data set: Doxorubicin cardiotoxicity: change in T2 of explanted myoglobin sensors. Conditions: myoglobin sensors left in vivo for 72 h after implantation; FIG. 17. An excerpt: FIG. 17 is a chart, illustrating data from experiments using sensors to detect the cardiotoxic effect of the drug Doxorubicin measured by change in T2 of […] sensors.
Derivatized particles were encapsulated within small diffusion devices. Polycarbonate diffusion membranes (SPI Supplies) were affixed by double-sided adhesive to one side of high-density polyethylene cylinders (thickness=1.6 mm, inner diameter=4.1 mm, outer diameter=7.9 mm). The opposing end was closed off by single-sided adhesive (3M) after the reservoir was filled with 25 μl particle solution. Devices (n=6 per animal) were implanted subcutaneously in the flank. The animals were euthanized and the devices explanted for single-sided relaxometry at specified time points. Devices were sealed with single-sided adhesive and replaced in the implant site for imaging.
The application of the sensors to discern drug cardiotoxicity was also studied. Doxorubicin is a potent anthracycline antibiotic that has found wide clinical use as a cancer chemotherapeutic. […] It was confirmed that serum myoglobin increases after doxorubicin administration in a murine model (as illustrated in FIG. 16), although at an order of magnitude lower concentration than after acute MI (10^2 ng/ml versus 10^3 ng/ml). Myoglobin sensors were thus left in vivo for 72 h after implantation (as opposed to 24 h for acute MI). […]

`COc1cccc2c1C(=O)c1c(O)c3c(c(O)c1C2=O)C[C@@](O)(C(=O)CO)C[C@@H]3O[C@H]1C[C@H](N)[C@H](O)[C@H](C)O1` [Doxorubicin]: the “sensor T2, experimental versus control groups” value is “clear distinction in sensor T2 between the experimental and control groups”.
